Experimental data: ChEMBL document CHEMBL4177558, “Rapid, microwave-accelerated synthesis and anti-osteoporosis activities evaluation of Morusin scaffolds and Morusignin L scaffolds” (2017)
Active and inactive are the calls of the source. The calls are words filed in the database; no cut-off is given here.

Legend:
MC3T3-E1 [1] = assay: Induction of osteoblast proliferation in mouse MC3T3-E1 cells assessed as growth rate relative to untreated control at 10^-5 mol/L after 48 hrs by MTT assay; type: functional; settings: MC3T3-E1, 48 h, read-out: Activity
MC3T3-E1 [2] = assay: Induction of osteoblast proliferation in mouse MC3T3-E1 cells assessed a growth rate relative to untreated control at 10^-6 mol/L after 48 hrs by MTT assay; type: functional
MC3T3-E1 [3] = assay: Induction of osteoblast proliferation in mouse MC3T3-E1 cells assessed a growth rate relative to untreated control at 10^-7 mol/L after 48 hrs by MTT assay; type: functional
MC3T3-E1 [4] = assay: Induction of osteoblast proliferation in mouse MC3T3-E1 cells assessed a growth rate relative to untreated control at 10^-8 mol/L after 48 hrs by MTT assay; type: functional
Osteoclast [5] = assay: Anti-osteoporotic activity assessed as osteoclast differentiation in rabbit bone marrow-derived osteoclast at 1 x 10^-5 mol/L after 8 days by TRAP staining-based phase-contrast microscopic method; type: functional, cell-based; settings: Oryctolagus cuniculus
Bone [6] = assay: Anti-osteoporotic activity in bovine bone assessed as bone resorption of osteoclast at 1 x 10^-5 mol/L after 8 days by toluidine blue staining-based method; type: functional, tissue-based; settings: Bos taurus; Bone element
Osteoclast [7] = assay: Inhibition of New Zealand white rabbit bone marrow-derived osteoclast differentiation assessed as reduction in TRAP activity in at 1 x 10^-5 mol/L measured on day 8 post dose by StrACP assay; type: functional, cell-based; settings: Oryctolagus cuniculus
Osteoclast [8] = assay: Inhibition of New Zealand white rabbit bone marrow-derived osteoclast differentiation assessed as reduction in TRAP positive cells at 1 x 10^-5 to 1 x 10^-8 mol/L measured on day 8 post dose by leukocyte acid phosphatase-staining based phase contrast microscopy; type: functional, cell-based; settings: Oryctolagus cuniculus
Osteoclast [9] = assay: Inhibition of New Zealand white rabbit bone marrow-derived osteoclast differentiation assessed as reduction in TRAP activity in at 1 x 10^-6 to 1 x 10^-8 mol/L measured on day 8 post dose by StrACP assay; type: functional, cell-based; settings: Oryctolagus cuniculus
Bone [10] = assay: Anti-osteoporotic activity in bovine bone assessed as bone resorption of osteoclast at 1 x 10^-8 mol/L after 8 days by toluidine blue staining-based method; type: functional, tissue-based; settings: Bos taurus; Bone element

| SMILES | growth at 10 µM (MC3T3-E1 [1]) | Activity (MC3T3-E1 [2]) | Activity (MC3T3-E1 [3]) | Activity (MC3T3-E1 [4]) | Activity (Osteoclast [5]) | Activity (Bone [6]) | inhibition (Osteoclast [7]) | inhibition (Osteoclast [8]) | inhibition (Osteoclast [9]) | Activity (Bone [10]) |
| --- | --- | --- | --- | --- | --- | --- | --- | --- | --- | --- |
| CC1(C)C=Cc2c(cc(O)c3c(=O)c(CCC(C)(O)c4ccc(F)cc4)c(-c4ccccc4Br)oc23)O1 (centres undefined) | 17.2% | 7.88% | 6.42% | 4.55% | Active | Active |  |  |  |  |
| CC(C)(O)CCc1c(-c2ccccc2Cl)oc2c3c(cc(O)c2c1=O)OC(C)(C)C=C3 | 4.29% | 2.97% | 1.78% | 3.08% |  |  |  |  |  |  |
| CC1(C)C=Cc2c(cc3oc(-c4ccccc4Cl)c(CCC(C)(O)c4ccc(F)cc4)c(=O)c3c2O)O1 (centres undefined) | 4.88% | 11.03% | 6.45% | 6.83% |  |  |  |  |  |  |
| CC(O)CCc1c(-c2ccccc2Br)oc2cc3c(c(O)c2c1=O)C=CC(C)(C)O3 (centres undefined) | 10.5% | 2.8% | 2.87% | -0.52% |  |  |  |  |  |  |
| CC(O)CCc1c(-c2ccccc2Cl)oc2c3c(cc(O)c2c1=O)OC(C)(C)C=C3 (centres undefined) | 24% | 5.18% | 2.37% | 0.53% |  |  |  |  |  |  |
| CC1(C)C=Cc2c(cc3oc(-c4ccccc4Br)c(CCC(C)(O)c4ccc(F)cc4)c(=O)c3c2O)O1 (centres undefined) | -4.88% | 1.49% | 6.25% | 1.91% |  |  |  |  |  |  |
| CC(=O)CCc1c(-c2ccccc2Br)oc2cc3c(c(O)c2c1=O)C=CC(C)(C)O3 | 10.6% | 0.88% | 0.79% | 0.38% |  |  |  |  |  |  |
| CC(=O)CCc1c(-c2ccccc2Cl)oc2c3c(cc(O)c2c1=O)OC(C)(C)C=C3 | 18.3% | 6.01% | 5.13% | 0.06% |  |  |  |  |  |  |
| CC(O)CCc1c(-c2ccccc2Cl)oc2cc3c(c(O)c2c1=O)C=CC(C)(C)O3 (centres undefined) | 27.1% | 5.63% | 7.45% | 11.08% | Active | Active |  |  |  |  |
| CC(C)(O)CCc1c(-c2ccccc2Cl)oc2cc3c(c(O)c2c1=O)C=CC(C)(C)O3 | 14.3% | 4.61% | 3.74% | 6.39% |  |  |  |  |  |  |
| CC1(C)C=Cc2c(cc(O)c3c(=O)c(CCC(C)(O)c4ccc(F)cc4)c(-c4ccccc4Cl)oc23)O1 (centres undefined) | 15.9% | 6.35% | 6.89% | 6.02% |  |  |  |  |  |  |
| CC1(C)C=Cc2c(cc3oc(-c4ccccc4Br)c(CCC(C)(O)c4ccccc4)c(=O)c3c2O)O1 (centres undefined) | 12.1% | 17.66% | 6.08% | 10.13% |  |  |  |  |  |  |
| CC(C)(O)CCc1c(-c2ccc(O)cc2O)oc2cc3c(c(O)c2c1=O)C=CC(C)(C)O3 | -4.81% | 6.69% | 5.88% | 2.26% |  | Active | Active | Active | inactive |  |
| CC(C)Oc1ccc2c(=O)c(-c3ccccc3)coc2c1 [IPRIFLAVONE] |  |  |  | 4.09 - 17.3% |  |  |  |  |  | Active |
| CC(C)=CCc1c(-c2ccc(O)cc2O)oc2c3c(cc(O)c2c1=O)OC(C)(C)C=C3 [MORUSIN] | 16% | 9.57% | 3.88% | 7.13% |  |  |  |  |  |  |
| CC(C)(O)CCc1c(-c2ccccc2Br)oc2cc3c(c(O)c2c1=O)C=CC(C)(C)O3 | 13.4% | 7.7% | 4.54% | 8.54% | Active | Active |  |  |  |  |
| CC1(C)C=Cc2c(cc(O)c3c(=O)c(CCC(C)(O)c4ccccc4)c(-c4ccccc4Br)oc23)O1 (centres undefined) | 21.7% | 16.65% | 14.74% | 8.56% | Active | Active |  |  |  |  |
| CC(O)CCc1c(-c2ccccc2Br)oc2c3c(cc(O)c2c1=O)OC(C)(C)C=C3 (centres undefined) | 19.5% | 4.94% | 6.7% | 7.02% |  |  |  |  |  |  |
| CC(C)(O)CCc1c(-c2ccccc2Br)oc2c3c(cc(O)c2c1=O)OC(C)(C)C=C3 | 2.6% | 0.33% | 4.22% | 3.41% |  |  |  |  |  |  |
| CC(=O)CCc1c(-c2ccccc2Cl)oc2cc3c(c(O)c2c1=O)C=CC(C)(C)O3 | 7.62% | 9% | 9.58% | 0.85% |  |  |  |  |  |  |
| CC(=O)CCc1c(-c2ccccc2Br)oc2c3c(cc(O)c2c1=O)OC(C)(C)C=C3 | 12.8% | 0.83% | 0.46% | 2.42% |  |  |  |  |  |  |
